Measurements: PubChem BioAssay AID1963828 (Molecular Pharmacology Branch, DTP, NCI, 2024)

Test system: 991263-137-R1-J2-PDC complex spheroid viability
Test: Anticancer human tumor 991263-137-R1-J2-PDC patient-derived colon adenocarcinoma cell line growth inhibition [POLQ]
Settings: for IC50: curve of first compound; for viability, T/C: stronger effect = lower value
Outline: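 Growth inhibition in 3D: complex spheroids (tumor PDC, HUVEC, MSC) treated with POLQ inhibitor combinations; where Cmax unknown, highest tested concentration 10 microM, except SN-38 at 1 microM.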

[1] = second compound 0.0316 µM, first compound 0.0316 µM
[2] = second compound 0.0316 µM, first compound 0.1 µM
[3] = second compound 0.0316 µM, first compound 0.316 µM
[4] = second compound 0.0316 µM, first compound 1 µM
[5] = second compound 0.0316 µM, first compound 3.16 µM
[6] = second compound 0.0316 µM, first compound 10 µM
[7] = second compound 0.1 µM, first compound 0.0316 µM
[8] = second compound 0.1 µM, first compound 0.1 µM
[9] = second compound 0.1 µM, first compound 0.316 µM
[10] = second compound 0.1 µM, first compound 1 µM
[11] = second compound 0.1 µM, first compound 3.16 µM
[12] = second compound 0.1 µM, first compound 10 µM
[13] = second compound 0.316 µM, first compound 0.0316 µM
[14] = second compound 0.316 µM, first compound 0.1 µM
[15] = second compound 0.316 µM, first compound 0.316 µM
[16] = second compound 0.316 µM, first compound 1 µM
[17] = second compound 0.316 µM, first compound 3.16 µM
[18] = second compound 0.316 µM, first compound 10 µM
[19] = second compound 1 µM, first compound 0.0316 µM
[20] = second compound 1 µM, first compound 0.1 µM
[21] = second compound 1 µM, first compound 0.316 µM
[22] = second compound 1 µM, first compound 1 µM
[23] = second compound 1 µM, first compound 3.16 µM
[24] = second compound 1 µM, first compound 10 µM
[25] = second compound 3.16 µM, first compound 0.0316 µM
[26] = second compound 3.16 µM, first compound 0.1 µM
[27] = second compound 3.16 µM, first compound 0.316 µM
[28] = second compound 3.16 µM, first compound 1 µM
[29] = second compound 3.16 µM, first compound 3.16 µM
[30] = second compound 3.16 µM, first compound 10 µM
[31] = second compound 10 µM, first compound 0.0316 µM
[32] = second compound 10 µM, first compound 0.1 µM
[33] = second compound 10 µM, first compound 0.316 µM
[34] = second compound 10 µM, first compound 1 µM
[35] = second compound 10 µM, first compound 3.16 µM
[36] = second compound 10 µM, first compound 10 µM
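Also: spheroids exposed to compounds for 7 days before readout.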
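For viability, T/C in this document: 100% = DMSO vehicle control viability.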

In the case of `COc1cc(C2c3cc4c(cc3C(OC3OC5COC(C)OC5C(O)C3O)C3COC(=O)C23)OCO4)cc(OC)c1O` (centres undefined) + Cc1cccc(N(C)C(=O)C2C(O)CCN2c2nc(C)cc(C(F)(F)F)c2C#N)c1, the IC50 (second compound 0.0316 µM) is reported as over 10 µM, the IC50 (second compound 0.1 µM) is reported as over 10 µM and the IC50 (second compound 0.316 µM) is reported as over 10 µM. It also gave an IC50 (second compound 1 µM) of over 10 µM, an IC50 (second compound 3.16 µM) of over 10 µM and an IC50 (second compound 10 µM) of over 10 µM. It also gave a viability, T/C [1] of 115%, a viability, T/C [2] of 99% and a viability, T/C [3] of 87.1%. It also gave a viability, T/C [4] of 90.5%, a viability, T/C [5] of 102% and a viability, T/C [6] of 84.7%. The viability, T/C [7] was 95.2%, the viability, T/C [8] was 103% and the viability, T/C [9] was 75.8%. It also gave a viability, T/C [10] of 98.1%, a viability, T/C [11] of 86.3% and a viability, T/C [12] of 73.1%. For the same molecule, the viability, T/C [13] was 104%, the viability, T/C [14] was 102% and the viability, T/C [15] was 109%. The viability, T/C [16] was 95.8%, the viability, T/C [17] was 94.4% and the viability, T/C [18] was 87.2%. For the same molecule, the viability, T/C [19] was 104%, the viability, T/C [20] was 109% and the viability, T/C [21] was 105%. For the same molecule, the viability, T/C [22] was 106%, the viability, T/C [23] was 84.8% and the viability, T/C [24] was 85.7%. For the same molecule, the viability, T/C [25] was 97.2%, the viability, T/C [26] was 107% and the viability, T/C [27] was 92.3%. For the same molecule, the viability, T/C [28] was 99.2%, the viability, T/C [29] was 102% and the viability, T/C [30] was 76.8%. The viability, T/C [31] was 117%, the viability, T/C [32] was 96.3% and the viability, T/C [33] was 73.6%. The viability, T/C [34] was 89.1%, the viability, T/C [35] was 84.9% and the viability, T/C [36] was 71.1%.
Work on `O=c1[nH]cc(F)c(=O)[nH]1` + Cc1cccc(N(C)C(=O)C2C(O)CCN2c2nc(C)cc(C(F)(F)F)c2C#N)c1 yielded an IC50 (second compound 0.0316 µM) of over 10 µM, an IC50 (second compound 0.1 µM) of over 10 µM and an IC50 (second compound 0.316 µM) of over 10 µM. It also gave an IC50 (second compound 1 µM) of over 10 µM, an IC50 (second compound 3.16 µM) of over 10 µM and an IC50 (second compound 10 µM) of over 10 µM. The viability, T/C [1] was 102%, the viability, T/C [2] was 116% and the viability, T/C [3] was 94%. For the same molecule, the viability, T/C [4] was 75.6%, the viability, T/C [5] was 74.8% and the viability, T/C [6] was 84.3%. It also gave a viability, T/C [7] of 107%, a viability, T/C [8] of 90.7% and a viability, T/C [9] of 79.6%. The viability, T/C [10] was 93.4%, the viability, T/C [11] was 85.8% and the viability, T/C [12] was 82.3%. The viability, T/C [13] was 124%, the viability, T/C [14] was 101% and the viability, T/C [15] was 93%. The viability, T/C [16] was 83.3%, the viability, T/C [17] was 77.2% and the viability, T/C [18] was 80.9%. It also gave a viability, T/C [19] of 110%, a viability, T/C [20] of 108% and a viability, T/C [21] of 97.3%. It also gave a viability, T/C [22] of 90.8%, a viability, T/C [23] of 85.4% and a viability, T/C [24] of 76%. The viability, T/C [25] was 108%, the viability, T/C [26] was 94.8% and the viability, T/C [27] was 102%. It also gave a viability, T/C [28] of 90.2%, a viability, T/C [29] of 82.5% and a viability, T/C [30] of 62.2%. The viability, T/C [31] was 115%, the viability, T/C [32] was 95.4% and the viability, T/C [33] was 94.1%. The viability, T/C [34] was 70%, the viability, T/C [35] was 85% and the viability, T/C [36] was 69.6%.
